# Reference: PubChem BioAssay AID1963980 (Molecular Pharmacology Branch, DTP, NCI, 2024)
# System: 475296-252-R-J1-PDC spheroid viability
# Experiment: Anticancer human tumor 475296-252-R-J1-PDC patient-derived rectal carcinoma cell line growth inhibition [PI3K]
# Settings: spheroids with HUVEC and MSC; for IC50: curve of first compound; for viability, T/C: stronger effect = lower value
# Method in brief: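 Tumor cells were combined with HUVEC and MSCs into spheroids, then dosed with PI3K-inhibitor combinations over half-log ranges capped near clinical Cmax or 10 microM.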
# [1] = second compound 0.0316 µM, first compound 0.0316 µM
# [2] = second compound 0.0316 µM, first compound 0.1 µM
# [3] = second compound 0.0316 µM, first compound 0.316 µM
# [4] = second compound 0.0316 µM, first compound 1 µM
# [5] = second compound 0.0316 µM, first compound 3.16 µM
# [6] = second compound 0.0316 µM, first compound 10 µM
# [7] = second compound 0.1 µM, first compound 0.0316 µM
# [8] = second compound 0.1 µM, first compound 0.1 µM
# [9] = second compound 0.1 µM, first compound 0.316 µM
# [10] = second compound 0.1 µM, first compound 1 µM
# [11] = second compound 0.1 µM, first compound 3.16 µM
# [12] = second compound 0.1 µM, first compound 10 µM
# [13] = second compound 0.316 µM, first compound 0.0316 µM
# [14] = second compound 0.316 µM, first compound 0.1 µM
# [15] = second compound 0.316 µM, first compound 0.316 µM
# [16] = second compound 0.316 µM, first compound 1 µM
# [17] = second compound 0.316 µM, first compound 3.16 µM
# [18] = second compound 0.316 µM, first compound 10 µM
# [19] = second compound 1 µM, first compound 0.0316 µM
# [20] = second compound 1 µM, first compound 0.1 µM
# [21] = second compound 1 µM, first compound 0.316 µM
# [22] = second compound 1 µM, first compound 1 µM
# [23] = second compound 1 µM, first compound 3.16 µM
# [24] = second compound 1 µM, first compound 10 µM
# [25] = second compound 0.00316 µM, first compound 0.0316 µM
# [26] = second compound 0.00316 µM, first compound 0.1 µM
# [27] = second compound 0.00316 µM, first compound 0.316 µM
# [28] = second compound 0.00316 µM, first compound 1 µM
# [29] = second compound 0.00316 µM, first compound 3.16 µM
# [30] = second compound 0.00316 µM, first compound 10 µM
# [31] = second compound 0.01 µM, first compound 0.0316 µM
# [32] = second compound 0.01 µM, first compound 0.1 µM
# [33] = second compound 0.01 µM, first compound 0.316 µM
# [34] = second compound 0.01 µM, first compound 1 µM
# [35] = second compound 0.01 µM, first compound 3.16 µM
# [36] = second compound 0.01 µM, first compound 10 µM
# 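Note: spheroids exposed to agents for seven days before readout.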
structure (smiles),measurement,setting,value
CC(C)NCC(C(=O)N1CCN(c2ncnc3c2C(C)CC3O)CC1)c1ccc(Cl)cc1 (stereo unspecified) + Cc1nc(NC(=O)N2CCCC2C(N)=O)sc1-c1ccnc(C(C)(C)C(F)(F)F)c1,IC50,second compound 0.0316 µM,> 10 µM
same,IC50,second compound 0.1 µM,> 10 µM
same,IC50,second compound 0.316 µM,> 10 µM
same,IC50,second compound 1 µM,> 10 µM
same,IC50,second compound 3.16 µM,> 10 µM
same,IC50,second compound 10 µM,> 10 µM
same,"viability, T/C",[1],98%
same,"viability, T/C",[2],90.3%
same,"viability, T/C",[3],92%
same,"viability, T/C",[4],89.3%
same,"viability, T/C",[5],78.9%
same,"viability, T/C",[6],70.3%
same,"viability, T/C",[7],89.4%
same,"viability, T/C",[8],93.3%
same,"viability, T/C",[9],92.7%
same,"viability, T/C",[10],80.3%
same,"viability, T/C",[11],62.4%
same,"viability, T/C",[12],58.2%
same,"viability, T/C",[13],93.2%
same,"viability, T/C",[14],95.1%
same,"viability, T/C",[15],88.3%
same,"viability, T/C",[16],92.5%
same,"viability, T/C",[17],68.3%
same,"viability, T/C",[18],58.9%
same,"viability, T/C",[19],85%
same,"viability, T/C",[20],92.7%
same,"viability, T/C",[21],88.2%
same,"viability, T/C",[22],90%
same,"viability, T/C",[23],81.3%
same,"viability, T/C",[24],58.7%
same,"viability, T/C","second compound 3.16 µM, first compound 0.0316 µM",82.5%
same,"viability, T/C","second compound 3.16 µM, first compound 0.1 µM",96.6%
same,"viability, T/C","second compound 3.16 µM, first compound 0.316 µM",88.8%
same,"viability, T/C","second compound 3.16 µM, first compound 1 µM",89.4%
same,"viability, T/C","second compound 3.16 µM, first compound 3.16 µM",77.7%
same,"viability, T/C","second compound 3.16 µM, first compound 10 µM",65.8%
same,"viability, T/C","second compound 10 µM, first compound 0.0316 µM",96%
same,"viability, T/C","second compound 10 µM, first compound 0.1 µM",81.3%
same,"viability, T/C","second compound 10 µM, first compound 0.316 µM",89.3%
same,"viability, T/C","second compound 10 µM, first compound 1 µM",85%
same,"viability, T/C","second compound 10 µM, first compound 3.16 µM",77.2%
same,"viability, T/C","second compound 10 µM, first compound 10 µM",64.3%
Cn1nccc1Nc1nccc(-c2ccn(C(CO)c3ccc(Cl)c(F)c3)c(=O)c2)n1 (stereo unspecified) + CC(Nc1ccc2c(c1)OCCn1cc(N3C(=O)OCC3C(F)F)nc1-2)C(N)=O,IC50,second compound 0.00316 µM,> 10 µM
same,IC50,second compound 0.01 µM,> 10 µM
same,IC50,second compound 0.0316 µM,> 10 µM
same,IC50,second compound 0.1 µM,> 10 µM
same,IC50,second compound 0.316 µM,6.42 µM
same,IC50,second compound 1 µM,3.52 µM
same,"viability, T/C",[25],92.9%
same,"viability, T/C",[26],92.8%
same,"viability, T/C",[27],99.3%
same,"viability, T/C",[28],91.6%
same,"viability, T/C",[29],90.3%
same,"viability, T/C",[30],80.9%
same,"viability, T/C",[31],96.8%
same,"viability, T/C",[32],97.9%
same,"viability, T/C",[33],94.4%
same,"viability, T/C",[34],89.1%
same,"viability, T/C",[35],92.1%
same,"viability, T/C",[36],74%
same,"viability, T/C",[1],101%
same,"viability, T/C",[2],105%
same,"viability, T/C",[3],95.7%
same,"viability, T/C",[4],85.8%
same,"viability, T/C",[5],82.9%
same,"viability, T/C",[6],74.7%
same,"viability, T/C",[7],87.6%
same,"viability, T/C",[8],94.7%
same,"viability, T/C",[9],76.8%
same,"viability, T/C",[10],83.7%
same,"viability, T/C",[11],73.3%
same,"viability, T/C",[12],58.1%
same,"viability, T/C",[13],81.1%
same,"viability, T/C",[14],87.4%
same,"viability, T/C",[15],83.1%
same,"viability, T/C",[16],77.2%
same,"viability, T/C",[17],61.1%
same,"viability, T/C",[18],43.1%
same,"viability, T/C",[19],84.1%
same,"viability, T/C",[20],81%
same,"viability, T/C",[21],87.1%
same,"viability, T/C",[22],67.9%
same,"viability, T/C",[23],53.3%
same,"viability, T/C",[24],31.4%
C=CC(=O)N1CCN(c2nc(=O)n(-c3c(C)ccnc3C(C)C)c3nc(-c4c(O)cccc4F)c(F)cc23)C(C)C1 (stereo unspecified) + COc1c(OCCCN2CCOCC2)ccc2c3n(c(=NC(=O)c4cnc(N)nc4)nc12)CCN3,IC50,second compound 0.00316 µM,> 10 µM
same,IC50,second compound 0.01 µM,> 10 µM
same,IC50,second compound 0.0316 µM,> 10 µM
same,IC50,second compound 0.1 µM,> 10 µM
same,IC50,second compound 0.316 µM,> 10 µM
same,IC50,second compound 1 µM,> 10 µM
same,"viability, T/C",[25],102%
same,"viability, T/C",[26],101%
same,"viability, T/C",[27],101%
same,"viability, T/C",[28],99.4%
same,"viability, T/C",[29],110%
same,"viability, T/C",[30],106%
same,"viability, T/C",[31],94.3%
same,"viability, T/C",[32],99.2%
same,"viability, T/C",[33],93.8%
same,"viability, T/C",[34],105%
same,"viability, T/C",[35],106%
same,"viability, T/C",[36],98.1%
same,"viability, T/C",[1],94.4%
same,"viability, T/C",[2],91.1%
same,"viability, T/C",[3],91.2%
same,"viability, T/C",[4],98.7%
same,"viability, T/C",[5],91.4%
same,"viability, T/C",[6],108%
same,"viability, T/C",[7],91.6%
same,"viability, T/C",[8],85.5%
same,"viability, T/C",[9],84%
same,"viability, T/C",[10],97.8%
same,"viability, T/C",[11],86%
same,"viability, T/C",[12],87.1%
same,"viability, T/C",[13],75.7%
same,"viability, T/C",[14],78.3%
same,"viability, T/C",[15],64.9%
same,"viability, T/C",[16],83.6%
same,"viability, T/C",[17],77.5%
same,"viability, T/C",[18],81%
same,"viability, T/C",[19],58.2%
same,"viability, T/C",[20],65.7%
same,"viability, T/C",[21],63.7%
same,"viability, T/C",[22],63.9%
same,"viability, T/C",[23],58.1%
same,"viability, T/C",[24],69.8%
